Data as given in US10954214B2 (Janssen Pharmaceutica NV, priority 2016, dated 2021).
Where two headings read alike, the source gives them in different places.

Tests used:
[1] = biological target: full-length MALT1 protein (Strep-MALT1(1-824)-His) (Homo sapiens (Human), UniProt Q9UDY8); test: MALT1 Biochemical Protease Assay (Ac-LRSR-AMC substrate); settings: 10 nM FL MALT1, 200 μM Ac-LRSR-AMC, 4 h at RT; read-out: MALT1_Biochemical activity (Ac-LRSR-amc) IC50
Summary of the method: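 Full-length MALT1 pre-incubated with compounds (30 μM to 0.5 nM, 11 threefold steps) for 50 min at RT. After Ac-LRSR-AMC was added, the reaction ran 4 h at RT and AMC fluorescence was read. IC50 and Hill slope from curve fitting against no-enzyme and no-compound controls.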

[2] = test system: IL10 secretion by OCI-LY3 ABC-DLBCL cells; test: Human IL10 Mesoscale assay (OCI-LY3); assay type: cell-based; settings: 24 h
Summary of the method: (§1)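 After 24 h at 37 °C with test compounds (15 μM down to 58.6 nM, 9 twofold steps, 0.3% DMSO), IL6 and IL10 secreted by 100,000 OCI-LY3 or TMD8 cells per well were measured in supernatants with a Mesoscale immunoassay. Data were scaled between DMSO wells (high) and RN486 treatment (low).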

[3] = test system: IL6 secretion by OCI-LY3 ABC-DLBCL cells; test: Human IL6 Mesoscale assay (OCI-LY3); assay type: cell-based; settings: 24 h
Summary of the method: as §1

OCI-Ly3 cells = test: 4-day proliferation assay, OCI-Ly3; assay type: cell-based, human; settings: 4 days incubation, CellTiterGLO, read-out: Anti-proliferation: OCI-LY-3 IC50
Summary of the method: (§2)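 TMD8 and OCI-Ly3 cells were seeded at 10,000 per well and grown 4 days at 37° C, 5% CO2 without beta-mercaptoethanol. Viability was read by CellTiter-Glo luminescence. IC50 and Hill slope were fitted relative to the low control median.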

TMD8 cells = test: 4-day proliferation assay, TMD8; assay type: cell-based; settings: 4 days incubation, CellTiterGLO, read-out: Anti-proliferation: TMD-8 IC50
Summary of the method: as §2

full-length MALT1 protein (Strep-MALT1(1-824)-His), sequence (Q9UDY8 whole entry): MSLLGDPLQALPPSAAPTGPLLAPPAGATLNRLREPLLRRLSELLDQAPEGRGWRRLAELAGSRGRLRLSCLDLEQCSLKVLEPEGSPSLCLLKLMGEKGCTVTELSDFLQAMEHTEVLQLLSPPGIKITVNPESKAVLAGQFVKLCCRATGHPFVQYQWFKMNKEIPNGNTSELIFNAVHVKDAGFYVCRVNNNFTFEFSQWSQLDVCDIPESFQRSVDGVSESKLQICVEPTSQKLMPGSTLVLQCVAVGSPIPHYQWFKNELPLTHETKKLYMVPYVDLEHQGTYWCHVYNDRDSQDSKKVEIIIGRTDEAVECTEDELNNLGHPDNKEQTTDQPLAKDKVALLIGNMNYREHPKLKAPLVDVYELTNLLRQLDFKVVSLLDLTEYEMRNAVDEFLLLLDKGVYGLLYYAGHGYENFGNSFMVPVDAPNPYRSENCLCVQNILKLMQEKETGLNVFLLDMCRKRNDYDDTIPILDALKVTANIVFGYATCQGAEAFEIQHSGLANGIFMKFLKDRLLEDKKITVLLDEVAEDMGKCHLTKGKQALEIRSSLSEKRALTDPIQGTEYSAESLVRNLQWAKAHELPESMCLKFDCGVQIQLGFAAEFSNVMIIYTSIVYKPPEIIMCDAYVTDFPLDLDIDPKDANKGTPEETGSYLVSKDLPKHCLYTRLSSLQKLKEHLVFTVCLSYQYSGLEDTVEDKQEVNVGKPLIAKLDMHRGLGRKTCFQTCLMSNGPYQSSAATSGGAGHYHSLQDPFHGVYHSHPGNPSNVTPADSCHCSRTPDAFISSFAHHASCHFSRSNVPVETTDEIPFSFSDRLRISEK

Compound	IC50 [1]	IC50 ([2]; Homo sapiens)	IC50 ([3]; Homo sapiens)	IC50 (OCI-Ly3 cells; Homo sapiens, 96 h)	IC50 [2]	IC50 [3]	IC50 (OCI-Ly3 cells)	IC50 (TMD8 cells)	IC50 (TMD8 cells; Homo sapiens, 96 h)
N-(4-(4-(aminomethyl)-1H-pyrazol-1-yl)-3-chlorophenyl)-1-(quinolin-5-yl)-5-(trifluoromethyl)-1H-pyrazole-4-carboxamide [Cpd 174]	59 nM	–	–	–	112 nM	251 nM	804 nM	1700 nM	–
N#Cc1cc(NC(=O)c2cnn(-c3ccc(N)c4ncccc34)c2C(F)(F)F)cnc1-n1nccn1 [Cpd 326, 1-(8-aminoquinolin-5-yl)-N-(5-cyano-6-(2H-1,2,3-triazol-2-yl)pyridin-3-yl)-5-(trifluoromethyl)-1H-pyrazole-4-carboxamide]	45 nM	89 nM	105 nM	881 nM	–	–	–	–	3240 nM
N#Cc1cc(NC(=O)c2cnn(-c3ccc(F)c4ncccc34)c2C(F)(F)F)cnc1-n1nccn1 [Cpd 308, N-(5-cyano-6-(2H-1,2,3-triazol-2-yl)pyridin-3-yl)-1-(8-fluoroquinolin-5-yl)-5-(trifluoromethyl)-1H-pyrazole-4-carboxamide]	58 nM	166 nM	219 nM	617 nM	–	–	–	–	4570 nM
N#Cc1cnn(-c2ncc(NC(=O)c3cnn(-c4cccc5ncccc45)c3C(F)(F)F)cc2Cl)n1 [Cpd 179, N-(5-chloro-6-(4-cyano-2H-1,2,3-triazol-2-yl)pyridin-3-yl)-1-(quinolin-5-yl)-5-(trifluoromethyl)-1H-pyrazole-4-carboxamide]	42 nM	174 nM	288 nM	763 nM	–	–	–	–	1950 nM
Cc1nc(-n2nccn2)c(C#N)cc1NC(=O)c1cnn(-c2cccc3nnsc23)c1C(F)(F)F [Cpd 314, 1-(benzo[d][1,2,3]thiadiazol-7-yl)-N-(5-cyano-2-methyl-6-(2H-1,2,3-triazol-2-yl)pyridin-3-yl)-5-(trifluoromethyl)-1H-pyrazole-4-carboxamide]	39 nM	692 nM	1020 nM	631 nM	–	–	–	–	1860 nM
Cc1nc(-n2nccn2)c(C#N)cc1NC(=O)c1cnn(-c2cccc3c(=O)[nH]ccc23)c1C(F)(F)F [Cpd 176, N-(5-cyano-2-methyl-6-(2H-1,2,3-triazol-2-yl)pyridin-3-yl)-1-(1-oxo-1,2-dihydroisoquinolin-5-yl)-5-(trifluoromethyl)-1H-pyrazole-4-carboxamide]	45 nM	95 nM	117 nM	1590 nM	–	–	–	–	> 20000 nM
O=C(Nc1cnc(-n2nccn2)c(Cl)c1)c1cnn(-c2cnc(O)c3ccccc23)c1C(F)(F)F [Cpd 448, N-(5-chloro-6-(2H-1,2,3-triazol-2-yl)pyridin-3-yl)-1-(1-hydroxyisoquinolin-4-yl)-5-(trifluoromethyl)-1H-pyrazole-4-carboxamide]	1290 nM	79 nM	117 nM	550 nM	–	–	–	–	5620 nM
Nc1cnnn1-c1ncc(NC(=O)c2cnn(-c3cccc4c(=O)[nH]ccc34)c2C(F)(F)F)cc1Cl [Cpd 178, N-(6-(5-amino-1H-1,2,3-triazol-1-yl)-5-chloropyridin-3-yl)-1-(1-oxo-1,2-dihydroisoquinolin-5-yl)-5-(trifluoromethyl)-1H-pyrazole-4-carboxamide]	42 nM	427 nM	589 nM	2800 nM	–	–	–	–	> 20000 nM

These reach a lower IC50 [1]. Values come first.

IC50 [1]	IC50 ([2]; Homo sapiens)	IC50 ([3]; Homo sapiens)	IC50 (OCI-Ly3 cells; Homo sapiens, 96 h)	Compound	IC50 [2]	IC50 [3]	IC50 (OCI-Ly3 cells)	IC50 (TMD8 cells)	IC50 (TMD8 cells; Homo sapiens, 96 h)
36 nM	13 nM	22 nM	866 nM	Cc1nc(-n2nccn2)c(Cl)cc1NC(=O)c1cnn(-c2cncc3ccccc23)c1C(F)(F)F [Cpd 191, N-(5-chloro-2-methyl-6-(2H-1,2,3-triazol-2-yl)pyridin-3-yl)-1-(isoquinolin-4-yl)-5-(trifluoromethyl)-1H-pyrazole-4-carboxamide]	–	–	–	–	912 nM
19 nM	68 nM	93 nM	302 nM	Nc1ncc(-n2ncc(C(=O)Nc3cnc(-n4nccn4)c(Cl)c3)c2C(F)(F)F)c2ccccc12 [Cpd 155, 1-(1-aminoisoquinolin-4-yl)-N-(5-chloro-6-(2H-1,2,3-triazol-2-yl)pyridin-3-yl)-5-(trifluoromethyl)-1H-pyrazole-4-carboxamide]	–	–	–	–	1380 nM
10 nM	89 nM	107 nM	284 nM	N#Cc1cc(NC(=O)c2cnn(-c3cnc(N)c4c(F)cccc34)c2C(F)(F)F)cnc1-n1nccn1 [Cpd 111, 1-(1-amino-8-fluoroisoquinolin-4-yl)-N-(5-cyano-6-(2H-1,2,3-triazol-2-yl)pyridin-3-yl)-5-(trifluoromethyl)-1H-pyrazole-4-carboxamide]	–	–	–	–	3310 nM
11 nM	79 nM	170 nM	912 nM	N#Cc1cc(NC(=O)c2cnn(-c3cccc4c(=O)[nH]ccc34)c2C(F)(F)F)cnc1-n1nccn1 [Cpd 113, N-(5-cyano-6-(2H-1,2,3-triazol-2-yl)pyridin-3-yl)-1-(1-oxo-1,2-dihydroisoquinolin-5-yl)-5-(trifluoromethyl)-1H-pyrazole-4-carboxamide]	–	–	–	–	13800 nM
28 nM	120 nM	117 nM	782 nM	O=C(Nc1cnc(-n2nccn2)c(Cl)c1)c1cnn(-c2cccc3ncc(Cl)n23)c1C(F)(F)F [Cpd 201, N-(5-chloro-6-(2H-1,2,3-triazol-2-yl)pyridin-3-yl)-1-(3-chloroimidazo[1,2-a]pyridin-5-yl)-5-(trifluoromethyl)-1H-pyrazole-4-carboxamide]	–	–	–	–	3630 nM
10 nM	31 nM	28 nM	> 20000 nM	O=C(O)c1cnn(-c2ncc(NC(=O)c3cnn(-c4cccc5ncccc45)c3C(F)(F)F)cc2Cl)n1 [Cpd 109, 2-(3-chloro-5-(1-(quinolin-5-yl)-5-(trifluoromethyl)-1H-pyrazole-4-carboxamido)pyridin-2-yl)-2H-1,2,3-triazole-4-carboxylic acid]	–	–	–	–	> 20000 nM
13 nM	56 nM	52 nM	132 nM	N#Cc1cc(NC(=O)c2cnn(-c3cccc4c(F)cccc34)c2C(F)(F)F)cnc1-n1nccn1 [Cpd 122, N-(5-cyano-6-(2H-1,2,3-triazol-2-yl)pyridin-3-yl)-1-(5-fluoronaphthalen-1-yl)-5-(trifluoromethyl)-1H-pyrazole-4-carboxamide]	–	–	–	–	162 nM
11 nM	29 nM	34 nM	193 nM	N#Cc1cc(NC(=O)c2cnn(-c3cccc4ncsc34)c2C(F)(F)F)cnc1-n1nccn1 [Cpd 114, 1-(benzo[d]thiazol-7-yl)-N-(5-cyano-6-(2H-1,2,3-triazol-2-yl)pyridin-3-yl)-5-(trifluoromethyl)-1H-pyrazole-4-carboxamide]	–	–	–	–	2690 nM
19 nM	95 nM	141 nM	571 nM	N#Cc1cc(NC(=O)c2cnn(-c3ccc(N)c4ccccc34)c2C(F)(F)F)cnc1-n1nccn1 [Cpd 132, 1-(4-aminonaphthalen-1-yl)-N-(5-cyano-6-(2H-1,2,3-triazol-2-yl)pyridin-3-yl)-5-(trifluoromethyl)-1H-pyrazole-4-carboxamide]	–	–	–	–	7760 nM
